Article PMC4893804 (Journal of medicinal chemistry, 2015)

Tests used:
[1] = test system: herpetic DNA polymerases (HCMV, HSV-1, VZV); assay: Herpetic DNA polymerase assays, pooled statements in text; assay type: biochemical
[2] = target: T1, RB69/ABC5 hybrid DNA polymerase (Escherichia phage RB69, UniProt Q38087, D222A/D327A/F479V/I557M/L561V/L562T/N480A/N558A/R559L/V478W); assay: biochemical; parameters: species or system bacteriophage RB69 / HCMV
Human DNA Pol β = Human DNA Pol β (Homo sapiens, UniProt P06746); assay: Enzyme assay with human DNA polymerase β; assay type: biochemical
VZV DNA polymerase = VZV DNA polymerase (Varicella-zoster virus, UniProt P09252); assay: Enzyme assay with VZV DNA polymerase; assay type: biochemical
M184I HIV-1 RT = M184I HIV-1 RT (Human immunodeficiency virus type 1 group M subtype B, UniProt P03366, M783I); assay: Mutant HIV-1 RT assay
Human DNA Pol α = target: T2, Human DNA Pol α (Homo sapiens, UniProt P09884); assay: Enzyme assay with human DNA polymerase α; assay type: biochemical
T2 sequence (P09884 1-1462): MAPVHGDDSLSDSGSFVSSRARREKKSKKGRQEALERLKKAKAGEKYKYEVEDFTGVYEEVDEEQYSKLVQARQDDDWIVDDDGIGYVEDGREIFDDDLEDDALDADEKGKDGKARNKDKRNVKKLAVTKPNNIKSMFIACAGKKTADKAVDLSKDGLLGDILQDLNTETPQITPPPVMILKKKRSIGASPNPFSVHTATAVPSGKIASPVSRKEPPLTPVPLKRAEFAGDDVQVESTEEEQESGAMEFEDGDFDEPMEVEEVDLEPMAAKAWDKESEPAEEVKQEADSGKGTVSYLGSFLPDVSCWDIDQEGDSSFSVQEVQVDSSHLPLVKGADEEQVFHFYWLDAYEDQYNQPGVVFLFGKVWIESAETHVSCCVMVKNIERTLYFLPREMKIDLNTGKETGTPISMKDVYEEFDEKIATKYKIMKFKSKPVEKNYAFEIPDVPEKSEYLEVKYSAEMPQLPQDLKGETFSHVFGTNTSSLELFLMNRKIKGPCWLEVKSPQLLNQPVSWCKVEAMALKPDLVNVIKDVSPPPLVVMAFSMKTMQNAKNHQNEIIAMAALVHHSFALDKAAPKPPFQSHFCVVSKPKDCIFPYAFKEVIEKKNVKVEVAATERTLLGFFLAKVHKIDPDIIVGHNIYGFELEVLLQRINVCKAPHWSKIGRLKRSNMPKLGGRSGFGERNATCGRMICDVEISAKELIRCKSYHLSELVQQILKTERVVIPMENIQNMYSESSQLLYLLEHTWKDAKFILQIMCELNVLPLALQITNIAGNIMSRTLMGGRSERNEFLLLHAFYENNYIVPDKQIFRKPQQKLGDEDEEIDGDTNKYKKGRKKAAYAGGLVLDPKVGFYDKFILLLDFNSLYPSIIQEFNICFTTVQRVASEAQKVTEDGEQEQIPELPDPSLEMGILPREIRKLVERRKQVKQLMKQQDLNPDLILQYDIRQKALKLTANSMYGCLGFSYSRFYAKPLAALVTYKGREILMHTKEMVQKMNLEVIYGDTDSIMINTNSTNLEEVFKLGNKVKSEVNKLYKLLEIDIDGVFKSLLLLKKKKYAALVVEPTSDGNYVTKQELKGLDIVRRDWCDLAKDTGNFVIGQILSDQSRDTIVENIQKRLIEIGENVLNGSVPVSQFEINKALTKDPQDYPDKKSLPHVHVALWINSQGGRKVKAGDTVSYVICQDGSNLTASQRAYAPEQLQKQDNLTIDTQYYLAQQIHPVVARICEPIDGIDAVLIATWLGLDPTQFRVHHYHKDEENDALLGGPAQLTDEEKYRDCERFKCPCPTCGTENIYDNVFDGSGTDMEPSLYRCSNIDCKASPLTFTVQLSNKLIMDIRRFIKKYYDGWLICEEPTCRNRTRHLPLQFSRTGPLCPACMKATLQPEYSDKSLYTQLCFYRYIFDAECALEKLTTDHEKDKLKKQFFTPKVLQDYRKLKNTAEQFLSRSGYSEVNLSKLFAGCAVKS

HSV-1 DNA polymerase = HSV-1 DNA polymerase (Human herpesvirus 1, UniProt P04293); assay: Enzyme assay with HSV-1 DNA polymerase; assay type: biochemical
Y115F HIV-1 RT = Y115F HIV-1 RT (Human immunodeficiency virus type 1 group M subtype B, UniProt P03366, Y714F); assay: Mutant HIV-1 RT assay
[3] = target: bacteriophage RB69 DNA polymerase gp43 (WT) (Escherichia phage RB69, UniProt Q38087, D222A/D327A); assay: biochemical
HIV-1 RT = HIV-1 RT (Human immunodeficiency virus type 1 group M subtype B, UniProt P03366); assay: HIV-1 reverse transcriptase assay with homopolymeric template/primers; assay type: biochemical
[4] = test system: human DNA polymerases α and β; assay: Human DNA polymerase α and β assays, pooled statements in text; assay type: biochemical
[5] = target: T1, RB69/ABC5 hybrid DNA polymerase; conditions: cited from earlier work
[6] = target: HCMV DNA polymerase (UL54) (Human cytomegalovirus, UniProt P08546); assay: Enzyme assay with HCMV DNA polymerase; assay type: biochemical; conditions: IC50 HCMV DNA Pol, activated calf thymus DNA, [3H]dTTP
[7] = IC50 HIV-1 RT Poly rA.dT ([3H]dTTP), Table 7, Poly rA.dT, [3H]dTTP
[8] = IC50 HIV-1 RT Poly rC.dG ([3H]dGTP), Poly rC.dG, [3H]dGTP
[9] = IC50 HIV-1 RT Poly rI.dC ([3H]dCTP), Poly rI.dC, [3H]dCTP
[10] = IC50 HIV-1 RT Poly rU.dA ([3H]dATP), Poly rU.dA, [3H]dATP
[11] = IC50 HIV-1 RT, poly rA.dT template/primer, [3H]dTTP
[12] = IC50 Wild-type HIV-1 RT, Table 8, wild-type RT

T1 sequence (Q38087 whole entry D222A/D327A/V478W/F479V/N480A/I557M/N558A/R559L/L561V/L562T): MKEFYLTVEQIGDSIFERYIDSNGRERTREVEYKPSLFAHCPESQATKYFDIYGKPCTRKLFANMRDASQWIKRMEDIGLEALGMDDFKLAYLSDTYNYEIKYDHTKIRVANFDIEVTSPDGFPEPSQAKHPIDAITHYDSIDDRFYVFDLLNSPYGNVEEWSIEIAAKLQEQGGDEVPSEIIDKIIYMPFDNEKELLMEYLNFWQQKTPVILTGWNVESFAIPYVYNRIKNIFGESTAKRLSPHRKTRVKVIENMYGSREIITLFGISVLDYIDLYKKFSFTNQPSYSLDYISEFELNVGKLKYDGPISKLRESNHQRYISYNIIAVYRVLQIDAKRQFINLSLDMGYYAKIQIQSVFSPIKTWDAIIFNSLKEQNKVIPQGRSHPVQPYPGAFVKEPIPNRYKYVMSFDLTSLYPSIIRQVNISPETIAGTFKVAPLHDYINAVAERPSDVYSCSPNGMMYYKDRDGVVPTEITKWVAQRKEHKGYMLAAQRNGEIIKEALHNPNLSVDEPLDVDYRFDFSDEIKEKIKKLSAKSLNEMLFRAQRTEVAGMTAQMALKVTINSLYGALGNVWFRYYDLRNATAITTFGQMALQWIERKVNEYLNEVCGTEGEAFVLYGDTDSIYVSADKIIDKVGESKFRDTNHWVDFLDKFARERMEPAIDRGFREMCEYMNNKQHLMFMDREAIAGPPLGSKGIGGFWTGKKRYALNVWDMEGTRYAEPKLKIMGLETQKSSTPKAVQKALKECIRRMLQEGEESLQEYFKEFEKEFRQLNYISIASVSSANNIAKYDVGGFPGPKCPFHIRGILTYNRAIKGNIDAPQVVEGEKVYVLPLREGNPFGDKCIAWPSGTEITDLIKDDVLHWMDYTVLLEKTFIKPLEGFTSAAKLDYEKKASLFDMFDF
Sequence of HSV-1 DNA polymerase (P04293 whole entry): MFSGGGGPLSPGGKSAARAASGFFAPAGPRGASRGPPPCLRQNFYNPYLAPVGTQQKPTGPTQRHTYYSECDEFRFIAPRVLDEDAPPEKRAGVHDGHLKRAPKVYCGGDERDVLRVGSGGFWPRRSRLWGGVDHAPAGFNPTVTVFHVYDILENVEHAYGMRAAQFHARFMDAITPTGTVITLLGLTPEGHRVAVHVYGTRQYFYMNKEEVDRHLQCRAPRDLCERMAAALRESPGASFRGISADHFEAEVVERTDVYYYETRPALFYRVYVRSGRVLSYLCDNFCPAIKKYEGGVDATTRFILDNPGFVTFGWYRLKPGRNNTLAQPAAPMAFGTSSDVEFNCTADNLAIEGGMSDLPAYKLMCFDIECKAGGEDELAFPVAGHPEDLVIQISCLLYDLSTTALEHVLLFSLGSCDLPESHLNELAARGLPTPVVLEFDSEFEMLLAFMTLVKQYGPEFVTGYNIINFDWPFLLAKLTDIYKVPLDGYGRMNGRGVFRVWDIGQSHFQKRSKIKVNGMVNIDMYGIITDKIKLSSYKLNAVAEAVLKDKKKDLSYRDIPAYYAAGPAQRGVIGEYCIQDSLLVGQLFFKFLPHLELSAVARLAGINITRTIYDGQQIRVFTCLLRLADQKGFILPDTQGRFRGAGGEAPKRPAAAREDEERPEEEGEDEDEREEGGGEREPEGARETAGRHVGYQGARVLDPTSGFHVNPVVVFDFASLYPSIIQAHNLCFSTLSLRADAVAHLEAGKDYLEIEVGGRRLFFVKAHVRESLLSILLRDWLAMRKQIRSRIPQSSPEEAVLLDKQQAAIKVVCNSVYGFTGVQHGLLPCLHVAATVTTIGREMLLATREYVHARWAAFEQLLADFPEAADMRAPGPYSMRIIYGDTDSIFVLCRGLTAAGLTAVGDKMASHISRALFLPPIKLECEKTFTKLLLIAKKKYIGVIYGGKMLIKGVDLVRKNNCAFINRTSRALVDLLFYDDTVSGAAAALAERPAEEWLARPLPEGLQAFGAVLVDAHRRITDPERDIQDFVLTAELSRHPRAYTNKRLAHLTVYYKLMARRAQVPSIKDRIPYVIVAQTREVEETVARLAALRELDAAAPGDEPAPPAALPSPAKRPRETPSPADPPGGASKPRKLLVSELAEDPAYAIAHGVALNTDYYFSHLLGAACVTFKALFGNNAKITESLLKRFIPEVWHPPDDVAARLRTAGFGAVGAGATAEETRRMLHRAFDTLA
Sequence of VZV DNA polymerase (P09252 whole entry): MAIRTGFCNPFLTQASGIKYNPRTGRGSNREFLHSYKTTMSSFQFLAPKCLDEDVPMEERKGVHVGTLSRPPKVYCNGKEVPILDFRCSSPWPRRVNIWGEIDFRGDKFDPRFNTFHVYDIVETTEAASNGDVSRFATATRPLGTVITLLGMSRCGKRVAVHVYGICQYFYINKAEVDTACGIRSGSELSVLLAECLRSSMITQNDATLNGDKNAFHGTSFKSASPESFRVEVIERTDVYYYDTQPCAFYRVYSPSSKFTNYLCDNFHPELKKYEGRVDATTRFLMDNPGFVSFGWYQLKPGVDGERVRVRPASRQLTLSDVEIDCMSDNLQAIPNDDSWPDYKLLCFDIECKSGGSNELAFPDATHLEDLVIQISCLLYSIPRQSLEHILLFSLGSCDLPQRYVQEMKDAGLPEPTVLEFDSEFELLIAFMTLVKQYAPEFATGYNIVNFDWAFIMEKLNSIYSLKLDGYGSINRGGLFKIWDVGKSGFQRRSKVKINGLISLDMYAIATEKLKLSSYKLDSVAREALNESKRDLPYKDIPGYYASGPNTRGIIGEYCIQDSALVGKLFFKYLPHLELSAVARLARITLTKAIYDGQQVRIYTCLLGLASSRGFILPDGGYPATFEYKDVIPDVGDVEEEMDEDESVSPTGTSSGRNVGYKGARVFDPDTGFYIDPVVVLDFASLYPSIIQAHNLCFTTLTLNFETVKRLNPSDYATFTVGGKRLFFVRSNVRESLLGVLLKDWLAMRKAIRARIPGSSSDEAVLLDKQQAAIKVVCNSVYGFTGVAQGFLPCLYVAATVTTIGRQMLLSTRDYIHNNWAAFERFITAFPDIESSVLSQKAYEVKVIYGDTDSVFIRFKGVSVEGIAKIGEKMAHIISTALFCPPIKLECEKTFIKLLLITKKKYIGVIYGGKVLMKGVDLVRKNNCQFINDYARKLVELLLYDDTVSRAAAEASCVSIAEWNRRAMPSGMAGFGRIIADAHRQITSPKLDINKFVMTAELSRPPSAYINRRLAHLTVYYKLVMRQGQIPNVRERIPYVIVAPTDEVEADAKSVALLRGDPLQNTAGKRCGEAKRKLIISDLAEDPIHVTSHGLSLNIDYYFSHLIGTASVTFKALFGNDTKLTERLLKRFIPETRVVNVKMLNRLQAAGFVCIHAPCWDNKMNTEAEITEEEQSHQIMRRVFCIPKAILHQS
Sequence of HCMV DNA polymerase (UL54) (P08546 whole entry): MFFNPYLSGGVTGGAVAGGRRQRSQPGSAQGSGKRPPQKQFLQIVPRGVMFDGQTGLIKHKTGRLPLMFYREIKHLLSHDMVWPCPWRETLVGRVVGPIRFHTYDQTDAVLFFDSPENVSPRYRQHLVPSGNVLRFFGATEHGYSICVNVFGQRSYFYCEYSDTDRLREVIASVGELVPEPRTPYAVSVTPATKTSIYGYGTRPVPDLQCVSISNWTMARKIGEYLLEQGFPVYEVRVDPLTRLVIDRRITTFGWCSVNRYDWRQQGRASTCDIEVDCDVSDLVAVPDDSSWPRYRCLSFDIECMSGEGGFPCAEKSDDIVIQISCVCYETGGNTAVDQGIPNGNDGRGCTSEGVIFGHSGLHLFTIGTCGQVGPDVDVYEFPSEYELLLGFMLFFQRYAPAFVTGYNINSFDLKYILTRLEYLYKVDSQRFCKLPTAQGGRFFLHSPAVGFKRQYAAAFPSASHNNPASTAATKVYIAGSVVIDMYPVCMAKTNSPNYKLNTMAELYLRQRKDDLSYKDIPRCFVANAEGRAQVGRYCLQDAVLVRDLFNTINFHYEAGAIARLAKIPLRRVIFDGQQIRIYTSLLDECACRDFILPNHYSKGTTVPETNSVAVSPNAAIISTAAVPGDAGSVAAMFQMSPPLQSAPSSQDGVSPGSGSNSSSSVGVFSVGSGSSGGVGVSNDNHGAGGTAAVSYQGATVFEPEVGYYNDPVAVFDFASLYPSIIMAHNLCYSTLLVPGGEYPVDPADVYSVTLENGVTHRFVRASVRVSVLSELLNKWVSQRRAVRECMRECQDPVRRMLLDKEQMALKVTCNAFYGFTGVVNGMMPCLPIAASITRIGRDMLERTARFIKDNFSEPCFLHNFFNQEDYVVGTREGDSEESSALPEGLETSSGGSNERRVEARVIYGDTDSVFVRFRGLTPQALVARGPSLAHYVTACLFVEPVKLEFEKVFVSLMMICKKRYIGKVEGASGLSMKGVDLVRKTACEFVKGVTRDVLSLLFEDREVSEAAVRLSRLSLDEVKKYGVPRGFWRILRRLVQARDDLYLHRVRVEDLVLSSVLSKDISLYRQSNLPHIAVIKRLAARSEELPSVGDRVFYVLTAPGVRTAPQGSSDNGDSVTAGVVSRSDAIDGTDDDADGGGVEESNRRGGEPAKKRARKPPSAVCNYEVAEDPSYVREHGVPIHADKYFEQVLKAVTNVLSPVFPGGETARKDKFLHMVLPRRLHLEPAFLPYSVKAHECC
Sequence of bacteriophage RB69 DNA polymerase gp43 (WT) (Q38087 whole entry D222A/D327A): as the sequence (Q38087 whole entry D222A/D327A/V478W/F479V/N480A/I557M/N558A/R559L/L561V/L562T) above, with W478V, V479F, A480N, M557I, A558N, L559R, V561L, T562L counted along it

In the case of `Cc1cn(C/C=C\COC(C(=O)O)P(=O)(O)O)c(=O)[nH]c1=O` (stereo not drawn) [Compound 6g, cis-2-(4-(2,4-Dioxo-5-methyl-pyrimidin-1-yl)but-2-enyloxy)-2-phosphonoacetic acid], the “selectivity for herpetic DNA polymerases compared to human DNA polymerase α” value ([1]; herpetic vs human DNA polymerase α) is reported as 4- to 7 fold, the “higher potency against herpetic DNA polymerases compared to butyl analogue 6h” value ([1]; ratio vs 6h) is reported as 8- to 20 fold and the “superior activity against herpetic DNA polymerases than against HIV-1 RT” value ([1]; selectivity herpetic over HIV-1 RT) is reported as ~ 100 fold. The IC50 [2] was greater than 100 µM, the IC50 (Human DNA Pol β) was greater than 500 µM and the IC50 (VZV DNA polymerase) was 2.2 ± 0.1 µM. For the same molecule, the IC50 (M184I HIV-1 RT) was greater than 2500 µM, the IC50 (Human DNA Pol α) was 14 ± 7 µM and the IC50 (HSV-1 DNA polymerase) was 3.7 ± 1.7 µM. For the same molecule, the IC50 (Y115F HIV-1 RT) was 655 ± 409 µM, the IC50 [3] was greater than 100 µM and the IC50 (HIV-1 RT; [7]) was 235 ± 16 µM. It also gave an IC50 (HIV-1 RT; [8]) greater than 500 µM, an IC50 (HIV-1 RT; [9]) greater than 500 µM and an IC50 (HIV-1 RT; [10]) of no less than 500 µM. The IC50 (HIV-1 RT; [11]) was 235 ± 16 µM, the IC50 (HIV-1 RT; [12]) was 320 ± 89 µM and the “loss of anti-HIV-1 RT activity compared to prototype thymine-α-CNP” value (HIV-1 RT; ratio of IC50 vs thymine-α-CNP) was ~ 600 fold.
For `O=C(O)C(OC/C=C\CO)P(=O)(O)O` (stereo not drawn) [Compound 6n, 2-Cis-((4-hydroxybut-2-en-1-yl)oxy)-2-phosphonoacetic acid], the “inhibitory activity against herpetic DNA polymerases (in words)” value [1] was “insensitive”, the “inhibitory activity against human DNA polymerases (in words)” value [4] was “insensitive” and the “inhibitory activity against HIV-1 RT (in words)” value (HIV-1 RT) was “insensitive”.
In the case of `Cc1cn(C[C@@H]2CCC[C@H]2COC(C(=O)O)P(=O)(O)O)c(=O)[nH]c1=O` (relative stereo) [Compound 6o], the “inhibitory activity against herpetic DNA polymerases (in words)” value [1] is reported as “poor, if any, inhibitory activity” and the “inhibitory activity against human DNA polymerases (in words)” value [4] is reported as “poor, if any, inhibitory activity”.
In the case of `Nc1nc2c(ncn2COCCOP(=O)(O)OP(=O)(O)OP(=O)(O)O)c(=O)[nH]1` [acyclovir triphosphate], the “sensitivity of chimera RB69/ABC5 to active-site inhibitors” value [5] is listed as “sensitive”.
In the case of `O=C(O)P(=O)(O)O` [PFA, phosphonoformic acid, reference compound], the “sensitivity of chimera RB69/ABC5 to active-site inhibitors” value [5] is given as “sensitive”, the IC50 (Human DNA Pol β) is given as greater than 100 µM and the IC50 (Human DNA Pol α) is given as 7.7 ± 6.5 µM. The IC50 (HSV-1 DNA polymerase) was 0.44 ± 0.25 µM, the IC50 (HIV-1 RT; IC50 HIV-1 RT) was 0.34 ± 0.01 µM and the IC50 (HIV-1 RT; IC50 HIV-1 RT Poly rA.dT ([3H]dTTP)) was 0.34 ± 0.01 µM. It also gave an IC50 (HIV-1 RT; IC50 HIV-1 RT Poly rC.dG ([3H]dGTP)) of 17 ± 2 µM, an IC50 (HIV-1 RT; IC50 HIV-1 RT Poly rI.dC ([3H]dCTP)) of 6.8 ± 2 µM and an IC50 (HIV-1 RT; IC50 HIV-1 RT Poly rU.dA ([3H]dATP)) of 0.75 ± 0.13 µM. For the same molecule, the IC50 [6] was 9.8 ± 5.8 µM.
In the case of `Nc1ccn(C/C=C\COC(C(=O)O)P(=O)(O)O)c(=O)n1` (stereo not drawn) [Compound 6m, 2-Cis-(4-(4-amino-2-oxopyrimidin-1(2H)-yl)but-2-enyloxy)-2-phosphonoacetic acid], the IC50 (Human DNA Pol β) is reported as greater than 500 µM, the IC50 (VZV DNA polymerase) is reported as 2.9 ± 0.9 µM and the IC50 (M184I HIV-1 RT) is reported as greater than 1250 µM. For the same molecule, the IC50 (Human DNA Pol α) was 414 ± 22 µM, the IC50 (HSV-1 DNA polymerase) was 12 ± 6 µM and the IC50 (Y115F HIV-1 RT) was 408 ± 16 µM. It also gave an IC50 (HIV-1 RT; [7]) of 270 ± 33 µM, an IC50 (HIV-1 RT; [8]) greater than 500 µM and an IC50 (HIV-1 RT; [9]) of 273 ± 54 µM. For the same molecule, the IC50 (HIV-1 RT; [10]) was greater than 500 µM, the IC50 (HIV-1 RT; [11]) was 270 ± 33 µM and the IC50 (HIV-1 RT; [12]) was 318 ± 73 µM. It also gave an IC50 [6] of 16 ± 8 µM.
